From US9440950B2, “Arginine methyltransferase inhibitors and uses thereof” (Epizyme, Inc., priority 2013, dated 2016)
pIC50: −log10 of the molar value.

Target: T1, human PRMT8 (Homo sapiens, UniProt Q9NR22)
T1 construct: Full-length human PRMT8 (NM_019854.4) isoform 1 transcript clone; made in house
Assay: PRMT8 Biochemical Assay
Details: peptide substrate, 3H-SAM Flashplate assay
Description: S-adenosylmethionine (SAM), S-adenosylhomocysteine (SAH), bicine, Tween20, dimethylsulfoxide (DMSO), bovine skin gelatin (BSG), isopropyl-P3-D-thiogalactopyranoside (IPTG), and Tris(2-carboxyethyl)phosphine hydrochloride solution (TCEP) were purchased from Sigma-Aldrich at the highest level of purity possible. ^3H-SAM was purchase from American Radiolabeled Chemicals with a specific activity of 80 Ci/mmol. 384-well streptavidin Flashplates were purchased from PerkinElmer.
Peptide representative of human histone H4 residues 31-45 was synthesized with an N-terminal linker-affinity tag motif and a C-terminal amide cap by 21st Century Biochemicals. The peptide was purified by high-performance liquid chromatography (HPLC) to greater than 95% purity and confirmed by liquid chromatography mass spectrometry (LC-MS). The sequence was Biot-Ahx-[…]-amide (SEQ ID NO.:8).
The resulting construct encodes an N-terminal GST tag and a thrombin cleavage sequence ([…] […] […] […]) (SEQ ID NO.:9) fused directly to Met 1 of PRMT8.
E. coli (BL21(DE3) Gold, Stratagene) made competent by the CaCl2 method were transformed with the PRMT8 construct and ampicillin selection. Protein over-expression was accomplished by growing the PRMT8 expressing E. coli clone and inducing expression with 0.3 mM IPTG at 16° C. The culture was grown for 12 hours, harvested by centrifugation, and stored at −80° C. for purification.
The column was washed with 50 mM phosphate buffer, 100 mM NaCl, 5% glycerol, 5 mM β-mercaptoethanol, pH 7.8 and PRMT8 was eluted by 100 mM phosphate in the same buffer. Protein was concentrated and buffer was exchanged to 50 mM Tris, 300 mM NaCl, 10% glycerol, 5 mM β-mercaptoethanol, pH 7.8 by ultrafiltration. The purity of recovered protein was 89%.
General Procedure for PRMT8 Enzyme Assays on Peptide Substrates.
The assays were all performed in a buffer consisting of 20 mM Bicine (pH=7.6), 1 mM TCEP, 0.005% BSG, and 0.002% Tween 20, prepared on the day of use. Compounds in 100% DMSO (1 ul) were spotted into a polypropylene 384-well V-bottom plates (Greiner) using a Platemate Plus outfitted with a 384-channel head (Thermo Scientific). DMSO (1 ul) was added to Columns 11, 12, 23, 24, rows A-H for the maximum signal control and 1 ul of SAH, a known product and inhibitor of PRMT8, was added to columns 11, 12, 23, 24, rows I-P for the minimum signal control. A cocktail (40 ul) containing the PRMT8 enzyme was added by Multidrop Combi (Thermo-Fisher). The compounds were allowed to incubate with PRMT8 for 30 min at room temperature, then a cocktail (10 ul) containing ^3H-SAM and peptide was added to initiate the reaction (final volume=51 ul). The final concentrations of the components were as follows: PRMT8 was 1.5 nM, ^3H-SAM was 50 nM, non-radiolabeled SAM was 550 nM, peptide was 150 nM, SAH in the minimum signal control wells was 1 mM, and the DMSO concentration was 2%. The assays were stopped by the addition of non-radiolabeled SAM (10 ul) to a final concentration of 400 uM, which dilutes the ^3H-SAM to a level where its incorporation into the peptide substrate is no longer detectable. 50 ul of the reaction in the 384-well polypropylene plate was then transferred to a 384-well Flashplate and the biotinylated peptides were allowed to bind to the streptavidin surface for at least 1 hour before being washed once with 0.1% Tween20 in a Biotek ELx405 plate washer. The plates were then read in a PerkinElmer TopCount plate reader to measure the quantity of ^3H-labeled peptide bound to the Flashplate surface, measured as disintegrations per minute (dpm) or alternatively, referred to as counts per minute (cpm).
Where dpm=disintegrations per minute, cmpd=signal in assay well, and min and max are the respective minimum and maximum signal controls.
Where top and bottom are the normally allowed to float, but may be fixed at 100 or 0 respectively in a 3-parameter fit. […]

T1 sequence (Q9NR22 whole entry, canonical isoform): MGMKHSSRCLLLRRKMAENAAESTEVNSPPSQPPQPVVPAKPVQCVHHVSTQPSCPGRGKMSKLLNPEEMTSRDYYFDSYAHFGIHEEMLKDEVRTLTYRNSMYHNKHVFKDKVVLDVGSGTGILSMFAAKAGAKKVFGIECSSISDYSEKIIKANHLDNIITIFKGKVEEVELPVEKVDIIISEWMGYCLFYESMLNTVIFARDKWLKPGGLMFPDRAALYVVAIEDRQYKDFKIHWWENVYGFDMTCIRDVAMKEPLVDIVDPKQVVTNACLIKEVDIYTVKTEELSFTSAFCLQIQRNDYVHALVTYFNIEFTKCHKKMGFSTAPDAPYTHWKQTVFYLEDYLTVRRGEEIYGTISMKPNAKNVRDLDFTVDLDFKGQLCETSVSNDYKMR

pIC50	Compound
6.00 to 7.00	CN(CCN)Cc1c[nH]nc1-c1ccc(C(F)(F)F)nc1 [Compound 13, N^1-methyl-N^1-((3-(6-(trifluoromethyl)pyridin-3-yl)-1H-pyrazol-4-yl)methyl)ethane-1,2-diamine]
5.00 to 5.52	COc1ncc(Cl)cc1-c1n[nH]cc1CN(C)CCN [Compound 14]
5.52 to 6.00	COc1ncccc1-c1n[nH]cc1CN(C)CCN [Compound 15]
5.00 to 5.52	COc1ccncc1-c1n[nH]cc1CN(C)CCN [Compound 16]
5.00 to 5.52	Cc1ccncc1-c1n[nH]cc1CN(C)CCN [Compound 17]
5.00 to 5.52	CN(CCN)Cc1c[nH]nc1-c1cncc(C#N)c1 [Compound 18]
5.52 to 6.00	CN(CCN)Cc1c[nH]nc1-c1cncc(Cl)c1 [Compound 19]
6.00 to 7.00	CN(CCN)Cc1c[nH]nc1-c1ccc(N2CCOCC2)nc1 [Compound 20]
5.52 to 6.00	CC(C)CN(C)c1ccc(-c2n[nH]cc2CN(C)CCN)cn1 [Compound 21]
6.00 to 7.00	CC(C)Oc1ccc(-c2n[nH]cc2CN(C)CCN)cn1 [Compound 22]
6.00 to 7.00	CN(CCN)Cc1c[nH]nc1-c1ccc(N(C)Cc2ccccc2)nc1 [Compound 23]
5.52 to 6.00	CCN(CC)c1ccc(-c2n[nH]cc2CN(C)CCN)cn1 [Compound 24]
5.52 to 6.00	CN(CCN)Cc1c[nH]nc1-c1ccc(NCc2ccccc2)nc1 [Compound 25]
5.52 to 6.00	CC(C)CNc1ccc(-c2n[nH]cc2CN(C)CCN)cn1 [Compound 26]
≤ 5.00	CN(CCN)Cc1c[nH]nc1-c1ccccn1 [Compound 27]
6.00 to 7.00	CN(CCN)Cc1c[nH]nc1-c1ccc(C#N)nc1 [Compound 28, 5-(4-(((2-aminoethyl)(methyl)amino)methyl)-1H-pyrazol-3-yl)picolinonitrile]
≤ 5.00	CN(CCN)Cc1c[nH]nc1-c1cnccc1C(F)(F)F [Compound 29]

The next lines start with the compound.

Compound	pIC50
CNCCN(C)Cc1c[nH]nc1-c1cccnc1 [Compound 1]	5.52 to 6.00
CNCCN(C)Cc1c[nH]nc1-c1ccc(O)nc1 [Compound 2]	≤ 5.00
CNCCN(C)Cc1c[nH]nc1-c1ccc(N)nc1 [Compound 3]	5.00 to 5.52
CN(CCN)Cc1c[nH]nc1-c1cncc(S(C)(=O)=O)c1 [Compound 4]	≤ 5.00
COc1ccc(-c2n[nH]cc2CN(C)CCN)cn1 [Compound 5]	5.52 to 6.00
Cc1cncc(-c2n[nH]cc2CN(C)CCN)c1 [Compound 6]	5.52 to 6.00
CN(CCN)Cc1c[nH]nc1-c1cncc(F)c1 [Compound 7]	5.52 to 6.00
CN(CCN)Cc1c[nH]nc1-c1cccnc1 [Compound 8]	5.52 to 6.00
CN(CCN)Cc1c[nH]nc1-c1ccncc1 [Compound 9]	6.00 to 7.00
Cc1cc(-c2n[nH]cc2CN(C)CCN)cnc1Cl [Compound 10]	6.00 to 7.00
COc1cc(-c2n[nH]cc2CN(C)CCN)ccn1 [Compound 11]	5.52 to 6.00
COc1cc(-c2n[nH]cc2CN(C)CCN)c(Cl)cn1 [Compound 12]	5.00 to 5.52
